Values quoted from earlier work, collected in patent publication US20050171131A1, “Diaminopyrimidine derivatives as growth hormone secrectgogue receptor (GHS-R) antagonists” (priority 2003, published 2005).
Non-standard residues stand in square brackets, D forms with d. No end group written: not given here.

[1] = repeated administration, ob/ob mice

Substance: H-H[dW][dK]W[dF]K [[D-Lys-3]-GHRP]
- energy intake (lean mice, mice with diet induced obesity, ob/ob obese mice): decrease energy intake
- rate of gastric emptying (mice): reduced the rate of gastric emptying
- body weight [1]: decreased body weight
- glycemic control [1]: improved glycemic control
